Earlier results as cited in patent publication US20110301202A1, “SPLA2 INHIBITOR CONJUGATE COMPOUNDS AND METHODS OF USE” (priority 2010, published 2011).

What was measured:
[1] = following administration
[2] = once- or twice-daily, stable CVD population, also diabetic and high baseline LDL-C subpopulations

For `CCc1c(C(=O)C(N)=O)c2c(OCC(=O)OC)cccc2n1Cc1ccccc1` [A-002, [[3-(2-Amino-1,2-dioxoethyl)-2-ethyl-1-(phenylmethyl)-1H-indol-4-yl]oxy]acetic acid methyl ester], the “absorption and hydrolysis of prodrug to A-001” value [1] is listed as “rapidly absorbed and hydrolyzed to A-001”, the lipid levels (humans) is listed as “decreases” and the LDL-C [2] is listed as “decreases”. For the same compound, the inflammatory marker levels [2] was “decreases”, the “small LDL-C particle levels” value [2] was “decreases” and the “total LDL-C particle levels” value [2] was “decreases”. The total cholesterol [2] was “decreases”.
